This is an account of results in patent EP0330052B1, “Use of benzimidazoles for preparing a medicine with an anti-ischemial activity on the heart, and combinations with betablockers or bradycardics” (Dr. Karl Thomae GmbH, priority 1988, dated 1989).

Series [1] can be described thus: Acute toxicity (LD50), mouse. The conditions noted are these: in vivo, Maus.
For series [2], the system named is Kaninchen. Description: Influence on infarct size in an ischaemia/reperfusion model (60 min coronary ligation, 30 min reperfusion). In kind it is in vivo. The conditions noted are these: i.v. 10 min before occlusion. As to the method:
1. Beeinflussung der Infarktgröße an einem Ischämie/Reperfusionsmodell
Kaninchen (Russen beiderlei Geschlechts, Körpergewicht 2-2,5 kg) werden mit einem Bolus (40-60 mg/kg i.p.) und nachfolgender Dauerinfusion (10 |g/kg/h) Pentobarbital narkotisiert. Die Körpertemperatur wird bei 38°C gehalten. Nach endotrachealer Intubation werden die Tiere druckkonstant mit einer Mischung aus 50 % O₂ und 50 % N₂ beatmet. Die Kontrolle der Blutgase und des Blut pH erfolgt mit einem Blutgasanalyzer (ABL-2, Radiometer). Zur Messung des linksventrikulären Druckes wurde ein Druckwandler über die A-carotis in die linke Herzkammer geschoben. Der Aortendruck wird über einen via A. femoralis eingeführten Katheter erfaßt. Nach Eröffnung des Thorax im 5. linken Interkostalraum wird die linke absteigende Koronararterie für 60 Minuten ligiert und danach die Koronararterie wieder eröffnet. Nach 30minütiger Reperfusion wird die Arterie an derselben Stelle wieder verschlossen und das normal perfundierte Myokard mit Patentblau (in den linken Vorhof injiziert) angefärbt. Das Herz wird danach in drei Scheiben geschnitten und das bisher ungefärbte, vorher ischämische Gewebe, wird in einem Puffer mit Triphenyltetrazolium angefärbt. Überlebende Herzmuskelreale färben sich ziegelrot, während totes Gewebe bleich erscheint. […]

For series [3], the system named is Hunde. In words: Effect on collateral-dependent residual myocardial perfusion after repeated complete occlusion of the circumflex branch of the left coronary artery (radioactive microspheres). The series is classed as in vivo. To be noted: relative to third occlusion. On the procedure:
2. Wirkung auf die kollateralabhängige Restperfusion des Myokards nach wiederholter vollständiger Okklusion des umschlingenden Astes der linken Koronararterie
Hunde (mischrassig, beiderlei Geschlechts, 20-30 kg Körpergewicht) werden mit Morphin (1 mg/kg s.c.) prämediziert und mit Pentobarbital (i.v. 20 mg/kg Bolus gefolgt von einer Dauerinfusion von 8 mg/kg) narkotisiert. Die Körpertemperatur wird mit einem Heizkissen bei 38°C gehalten. Nach endotrachealer Intubation werden die Tiere mit einem Gemisch von 25 % O₂ und 75 % N₂O beatmet. Der linksventrikuläre Druck wird mit einem Mikrodruckwandler gemessen, während der Aortendruck über einen via A. femoralis vorgeschobenen Katheter erfaßt wird. Nach Thoraxeröffnung im linken 5. Interkostalraum wird der Ramus circumflexus der linken Koronararterie freipärpariert und der Meßkopf eines elektromagnetischen Flowmeters darumgelegt. Zur Injektion von radioaktiven Mikrosphären (regionale Perfusionsmessung) wird der linke Vorhof kanüliert. Die Referenzprobe wird über die linke A. femoralis 2 Minuten lang bei einem Fluß von 6 ml/Minute gezogen. Die Registrierung der hämodynamischen Daten erfolgt auf einem IFD Polygraphen.
Nach einer 30minütigen Äquilibrierungsphase wird der Ramus circumflexus 6 mal im Abstand von jeweils 30 Minuten für 4 Minuten verschlossen. Dabei wird während der 4. Minute eine regionale Perfusionsbestimmung durchgeführt. Die Perfusion des Versorgungsbereiches des Ramus circumflexus ist abhängig von koronaren Kollateralgefäßen. Für die Beurteilung der Kollateralperfusion werden die besonders ischämiegefährdeten subendocardialen Herzmuskelschichten herangezogen. Als Bezugswert vor Substanzgabe dient der jeweilige Flußwert der dritten Okklusion.

Series [4] is described as follows: Acute toxicity (LD50), rat. The conditions noted are these: in vivo, iv, Ratte, read-out: LD₅₀ i.v.
[5] abbreviates: po, read-out: LD₅₀ p.o. (converted).

With `COc1ccc(CCN(C)CCCN2CCc3cc(OC)c(OC)cc3CC2=O)cc1OC` [Verbindung E, 1-(7,8-Dimethoxy-1,3,4,5-tetrahydro-2H-3-benzazepin-2-on-3-yl)-3-[N-methyl-N-(2-(3,4-dimethoxyphenyl)-ethyl)-amino]propan], the LD50 in series [1] (iv, read-out: LD₅₀ i.v.) is 89 mg/kg; in series [1] (setting [5]), 1350 mg/kg.

On to `COc1ccc(-c2nc3ccc(C4=NNC(=O)CC4C)cc3[nH]2)cc1` (stereo not shown) [Verbindung A, 2-(4-Methoxyphenyl)-5-(5-methyl-3-oxo-4,5-dihydro-2H-6-pyridazinyl)-benzimidazol], for which, in series [2] (Dosis 0,5 mg/kg), the “% des ischämischen Myokards infarziert” value stood at 34%. In series [3] (Dosis i.v. 30 µg/kg), the “% Änderung des Kollateralflusses pro Herzschlag im subendocardialen ischämischen Myocard” value is on record as “+100%”. In addition, the LD50 in series [4] was 72 mg/kg; in series [1] (setting [5]) it was 600 mg/kg.

With `CC1CC(=O)NN=C1c1ccc2nc(-c3ccc(O)cc3)[nH]c2c1` (stereo not shown) [Verbindung B, 2-(4-Hydroxyphenyl)-5-(5-methyl-3-oxo-4,5-dihydro-2H-6-pyridazinyl)-benzimidazol], the “% Änderung des Kollateralflusses pro Herzschlag im subendocardialen ischämischen Myocard” value in series [3] (Dosis i.v. 95 µg/kg) is reported as “+182%”. In addition, the LD50 in series [4] is > 100 mg/kg.

As to `CC(C)NCC(O)COc1ccc(CC(N)=O)cc1` (stereo not shown) [Atenolol, reference compound], in series [2] (Dosis 0,3 mg/kg), the “% des ischämischen Myokards infarziert” value was determined as 63%.

As for `COc1ccc(CCN2CCCC(CN3CCc4cc(OC)c(OC)cc4CC3=O)C2)cc1OC` (stereo not shown) [D, 3-[(N-(2-(3,4-Dimethoxyphenyl)-ethyl)-piperidin-3-yl)-methyl]-7,8-dimethoxy-1,3,4,5-tetrahydro-2H-3-benzazepin-2-on], the LD50 in series [1] (iv, read-out: LD₅₀ i.v.) was 50 mg/kg; in series [1] (setting [5]), 720 mg/kg.

`Cc1nc2ccc(C3=NNC(=O)CC3C)cc2[nH]1` (stereo not shown) [C, 2-Methyl-5-(5-methyl-3-oxo-4,5-dihydro-2H-6-pyridazinyl)-benzimidazol]: the “% Änderung des Kollateralflusses pro Herzschlag im subendocardialen ischämischen Myocard” value in series [3] (Dosis i.v. 10 µg/kg) is “+101%”; in series [3] (Dosis i.v. 30 µg/kg) it was “+178%”.
